How the values were obtained:
[1] = test system: Pectobacterium carotovorum; test: in vitro volatile assay, minimum bactericidal concentration (Example 11); format: cell-based; details: headspace concentration; 23° C. for 48 hours
Procedure: (§1) 12-Well (6.5 mL volume per well) microtiter plates are used for the in vitro inhibition assay for volatile antimicrobial Compound A (FIG. 1) against numerous bacterial pathogens. A 3-mL volume of Nutrient agar is added to each well and allowed to dry before introducing the pathogen. Escherichia coli, Pectobacterium carotovorum, Xanthomonas axonopodis and Salmonella enterica cell suspensions are adjusted to an optical density of 0.2 to 0.35, and further diluted 1/10, and 15 μL is pipetted to the center of each well and tilted to distribute uniformly. A Whatman #1 filter paper (CAT 1001-0155) is placed on the underside of a polyethylene PCR plate sealing film. […] The films with the treated disks are then applied over the inoculated plates and sealed. Plates are inverted, and incubated at 23° C. for 48 hours. After the incubation period, the bacteria colonies are dislodged in sterile water containing tween 80 (0.001%) and the optical density (OD; 600 nm) is determined Results are summarized in Table 10, where the headspace concentration required to control at least 80% of bacterial growth is reported.

[2] = test system: Xanthomonas axonopodis; test: as above; format: cell-based; details: headspace concentration; 23° C. for 48 hours
Procedure: as §1

[3] = test system: Pectobacterium carotovorum; test: in vivo volatile assay on potato, onion and carrot cubes; details: 50 mg/L; for Log CFU/mL: 10 C for four days
Procedure: To test the effect of Compound A at controlling bacterial pathogens of vegetables, potato, onion and carrot are chopped into small cubes and surface sterilized with 0.825% NaOCl and allowed to dry. Four small cubes (approximately […]) of each vegetable are placed in a sterile Petri plate. Each cube is inoculated with 25 μL of Pectobacterium carotovorum (bacterial concentration of OD 1.0, 600 nm). […] No. 1001-042) attached to the inner side of the lid. The acetone is permitted to evaporate for five minutes before closing the plate and sealing it with parafilm. The vegetables are incubated at 10 C for four days.

[4] = test system: Botrytis cinerea; test: in vivo volatile bioassay using strawberry, grape and blueberry
Procedure: In order to assess the in vivo activity of volatile antimicrobial Compound A in fruit, a volatile bioassay is developed using strawberry, grape and blueberry. Eight strawberries, 16 grapes or 30 blueberries (per replicate) are placed in a commercially relevant sized PET clamshell, with the stem end facing up for blueberries and grapes, and downwards for strawberries. A fresh wound is inoculated with 20 μL (strawberry and grape) or 10 μL (blueberry) of 1×10^6 per mL Botrytis cinerea spore suspension. The clamshells are placed inside a 10.8-cup SnapWare airtight container (Model #109842). A 42.5 mm Whatman #1 filter disk (Cat. No. 1001-042) is placed on a watch glass. Compound A is dissolved in acetone and added to the disks in a dose dependent manner to produce a final headspace concentration of 0.4, 2, or 10 mg/L. The acetone is permitted to evaporate for five minutes. The containers are then closed with lids and placed for three days at 21° C. After storage, fruits are evaluated for incidence and severity (0 to 4) of disease for an additional three days at 21° C., with results summarized in Table 17.

[5] = test system: Penicillium expansum; test: in vivo contact drench assay on apples
Procedure: In order to assess the activity of Compound A (FIG. 1) as a contact drench fungicide, an in vivo assay is developed. […] Compound A is dissolved in water to achieve a final treatment solution concentration of 250, 50, or 10 mg/L. The fruit is dipped in Compound A solution for 1 minute and allowed to dry for 1 hour. Fruit wounds are then inoculated with 30 μL of 1×10^6 per mL Penicillium expansum spore suspension (apple) or Penicillium digitatum spore suspension (orange). Clamshells are then placed in a 10.8-cup SnapWare airtight container (Model #109842) and incubated for 3 days at 21° C.

[6] = Blueberry, 0.4 mg/L, evaluation day 0
[7] = Blueberry, 0.4 mg/L, evaluation day 1
[8] = Blueberry, 0.4 mg/L, evaluation day 2
[9] = Blueberry, 0.4 mg/L, evaluation day 3
[10] = Blueberry, 2 mg/L, evaluation day 0
[11] = Blueberry, 2 mg/L, evaluation day 1
[12] = Blueberry, 2 mg/L, evaluation day 2
[13] = Blueberry, 2 mg/L, evaluation day 3
[14] = Blueberry, 10 mg/L, evaluation day 0
[15] = Blueberry, 10 mg/L, evaluation day 1
[16] = Blueberry, 10 mg/L, evaluation day 2
[17] = Blueberry, 10 mg/L, evaluation day 3
[18] = Grape, 0.4 mg/L, evaluation day 0
[19] = Grape, 0.4 mg/L, evaluation day 1
[20] = Grape, 0.4 mg/L, evaluation day 2
[21] = Grape, 0.4 mg/L, evaluation day 3
[22] = Grape, 2 mg/L, evaluation day 2
[23] = Grape, 2 mg/L, evaluation day 3
[24] = Grape, 10 mg/L, evaluation day 2
[25] = Grape, 10 mg/L, evaluation day 3
[26] = Strawberry, 0.4 mg/L, evaluation day 0
[27] = Strawberry, 0.4 mg/L, evaluation day 1
[28] = Strawberry, 0.4 mg/L, evaluation day 2
[29] = Strawberry, 0.4 mg/L, evaluation day 3
[30] = Strawberry, 2 mg/L, evaluation day 0
[31] = Strawberry, 2 mg/L, evaluation day 1
[32] = Strawberry, 2 mg/L, evaluation day 2
[33] = Strawberry, 2 mg/L, evaluation day 3
[34] = Strawberry, 10 mg/L, evaluation day 0
[35] = Strawberry, 10 mg/L, evaluation day 1
[36] = Strawberry, 10 mg/L, evaluation day 2
[37] = Strawberry, 10 mg/L, evaluation day 3

OB1OCc2cc(F)ccc21 [Compound A]
Rate (mg/L) offering at least 80% control, P. carotovorum [1]: 2.2 mg/L | Rate (mg/L) offering at least 80% control, X. axonopodis [2]: 4.5 mg/L | Log reduction ([3]; Carrot): 0.29 log | Log CFU/mL ([3]; Carrot): 6.06 Log CFU/mL | Log reduction ([3]; Onion): 2.14 log | Log CFU/mL ([3]; Onion): 5.99 Log CFU/mL | Log reduction ([3]; Potato): 0.84 log | Log CFU/mL ([3]; Potato): 6.63 Log CFU/mL | Incidence (%) [4, 6]: 21% | Severity (0-4) [4, 6]: 0.1 | Incidence (%) [4, 7]: 21% | Severity (0-4) [4, 7]: 0.2 | Incidence (%) [4, 8]: 40.3% | Severity (0-4) [4, 8]: 0.5 | Incidence (%) [4, 9]: 62.9% | Severity (0-4) [4, 9]: 1 | Incidence (%) [4, 10]: 9.7% | Severity (0-4) [4, 10]: 0 | Incidence (%) [4, 11]: 9.7% | Severity (0-4) [4, 11]: 0 | Incidence (%) [4, 12]: 9.7% | Severity (0-4) [4, 12]: 0.1 | Incidence (%) [4, 13]: 40.3% | Severity (0-4) [4, 13]: 0.6 | Incidence (%) [4, 14]: 12.9% | Severity (0-4) [4, 14]: 0.1 | Incidence (%) [4, 15]: 12.9% | Severity (0-4) [4, 15]: 0.1 | Incidence (%) [4, 16]: 12.9% | Severity (0-4) [4, 16]: 0.2 | Incidence (%) [4, 17]: 41.9% | Severity (0-4) [4, 17]: 0.6 | Incidence (%) [4, 18]: 3.1% | Severity (0-4) [4, 18]: 0 | Incidence (%) [4, 19]: 3.1% | Severity (0-4) [4, 19]: 0 | Incidence (%) [4, 20]: 15.6% | Severity (0-4) [4, 20]: 0.2 | Incidence (%) [4, 21]: 62.5% | Severity (0-4) [4, 21]: 0.5 | Severity (0-4) ([4]; Grape, 2 mg/L, evaluation day 0): 0 | Severity (0-4) ([4]; Grape, 2 mg/L, evaluation day 1): 0 | Incidence (%) [4, 22]: 0% | Severity (0-4) [4, 22]: 0 | Incidence (%) [4, 23]: 56.3% | Severity (0-4) [4, 23]: 0.3 | Severity (0-4) ([4]; Grape, 10 mg/L, evaluation day 0): 0 | Severity (0-4) ([4]; Grape, 10 mg/L, evaluation day 1): 0 | Incidence (%) [4, 24]: 3.1% | Severity (0-4) [4, 24]: 0 | Incidence (%) [4, 25]: 56.3% | Severity (0-4) [4, 25]: 0.4 | Incidence (%) [4, 26]: 0% | Severity (0-4) [4, 26]: 0 | Incidence (%) [4, 27]: 21.4% | Severity (0-4) [4, 27]: 0.1 | Incidence (%) [4, 28]: 21.4% | Severity (0-4) [4, 28]: 0.1 | Incidence (%) [4, 29]: 28.6% | Severity (0-4) [4, 29]: 0.5 | Incidence (%) [4, 30]: 14.3% | Severity (0-4) [4, 30]: 0.1 | Incidence (%) [4, 31]: 50% | Severity (0-4) [4, 31]: 0.3 | Incidence (%) [4, 32]: 50% | Severity (0-4) [4, 32]: 0.3 | Incidence (%) [4, 33]: 64.3% | Severity (0-4) [4, 33]: 0.5 | Incidence (%) [4, 34]: 7.1% | Severity (0-4) [4, 34]: 0 | Incidence (%) [4, 35]: 35.7% | Severity (0-4) [4, 35]: 0.2 | Incidence (%) [4, 36]: 42.9% | Severity (0-4) [4, 36]: 0.5 | Incidence (%) [4, 37]: 42.9% | Severity (0-4) [4, 37]: 0.8 | Browning (mm) ([5]; dip 10 mg/L): 8.5 mm | Sporulation (mm) ([5]; dip 10 mg/L): 2.1 mm | Browning (mm) ([5]; dip 50 mg/L): 3.7 mm | Sporulation (mm) ([5]; dip 50 mg/L): 1.6 mm | Browning (mm) ([5]; dip 250 mg/L): 0.8 mm | Sporulation (mm) ([5]; dip 250 mg/L): 0.5 mm

Reference: patent US9426996B2, “Use of benzoxaboroles as volatile antimicrobial agents on meats, plants, or plant parts” (AgroFresh Inc., priority 2013, dated 2016)
